Results published in patent publication EP1806348A2, “Pyrido (2,3-D)Pyrimidines as inhibitors of cellular proliferation” (Warner-Lambert Company LLC, priority 1997, dated 1998).

What was measured:
Format in all cases: biochemical
[1] = biological target: T1, mouse PDGF-β receptor tyrosine kinase (Mus musculus, UniProt P05622); assay: PDGF receptor tyrosine kinase assay; conditions: Table 3
T1 construct: amplify a fragment of DNA that codes for the intracellular tyrosine kinase domain; made in house; host or cells: SF9 insect cells (baculovirus)
T1 sequence (P05622 599-961 limits assumed): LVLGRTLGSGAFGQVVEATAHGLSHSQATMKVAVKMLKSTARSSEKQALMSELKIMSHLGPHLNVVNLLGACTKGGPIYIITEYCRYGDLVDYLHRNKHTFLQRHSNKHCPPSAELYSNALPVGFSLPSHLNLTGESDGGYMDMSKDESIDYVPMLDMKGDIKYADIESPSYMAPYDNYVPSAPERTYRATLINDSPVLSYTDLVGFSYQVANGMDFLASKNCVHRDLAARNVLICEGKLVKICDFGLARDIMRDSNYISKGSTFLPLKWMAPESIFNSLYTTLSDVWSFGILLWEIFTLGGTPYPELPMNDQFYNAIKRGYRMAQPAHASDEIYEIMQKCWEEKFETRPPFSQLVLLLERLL
Excerpt: (§1) Full-length cDNAs for the mouse PDGF-β and human FGF-1 (flg) receptor tyrosine kinases were obtained from J. Escobedo and prepared as described in J. Biol. Chem., 1991;262:1482-1487. PCR primers were designed to amplify a fragment of DNA that codes for the intracellular tyrosine kinase domain. The fragment was inserted into a baculovirus vector, cotransfected with AcMNPV DNA, and the recombinant virus isolated. SF9 insect cells were infected with the virus to overexpress the protein, and the cell lysate was used for the assay. Assays were performed in 96-well plates (100 µL/incubation/well), and conditions were optimized to measure the incorporation of ^32P from γ^32P-ATP into a glutamate-tyrosine co-polymer substrate. Briefly, to each well was added 82.5 µL of incubation buffer containing 25 mM Hepes (pH 7.0), 150 mM NaCl, 0.1% Triton X-100, 0.2 mM PMSF, 0.2 mM Na3VO4, 10 mM MnCl2, and 750 µg/mL of Poly (4:1) glutamate-tyrosine followed by […] of inhibitor and 5 µL of enzyme lysate (7.5 µg/µL FGF-TK or 6.0 µg/µL PDGF-TK) to initiate the reaction. Following a 10 minute incubation at 25°C, […] of γ^32P-ATP (0.4 µCi plus 50 µM ATP) was added to each well, and samples were incubated for an additional 10 minutes at 25°C. The reaction was terminated by the addition of 100 µL of 30% trichloroacetic acid (TCA) containing 20 mM sodium pyrophosphate and precipitation of material onto glass fiber mats (Wallac). Filters were washed three times with 15% TCA containing 100 mM sodium pyrophosphate, and the radioactivity retained on the filters counted in a Wallac 1250 Betaplate reader. Nonspecific activity was defined as radioactivity retained on the filters following incubation of samples with buffer alone (no enzyme). Specific enzymatic activity (enzyme plus buffer) was defined as total activity minus nonspecific activity. […]

[2] = biological target: T2, human FGF-1 (flg) receptor tyrosine kinase (Homo sapiens, UniProt P11362); assay: FGF receptor tyrosine kinase assay; conditions: Table 3
T2 construct: amplify a fragment of DNA that codes for the intracellular tyrosine kinase domain; made in house; host or cells: SF9 insect cells (baculovirus)
T2 sequence (P11362 478-767 limits assumed): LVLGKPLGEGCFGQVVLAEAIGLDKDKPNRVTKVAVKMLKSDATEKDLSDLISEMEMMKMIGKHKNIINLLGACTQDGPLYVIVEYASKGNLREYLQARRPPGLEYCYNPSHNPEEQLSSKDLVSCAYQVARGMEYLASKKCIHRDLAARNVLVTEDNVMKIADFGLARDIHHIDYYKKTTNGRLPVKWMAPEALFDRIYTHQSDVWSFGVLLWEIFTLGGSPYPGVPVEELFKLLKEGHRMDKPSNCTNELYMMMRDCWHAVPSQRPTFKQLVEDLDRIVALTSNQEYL
Excerpt: as §1

cdk4/D = cdk4/D (Homo sapiens, UniProt P11802); assay: Cyclin-dependent kinase 4 (cdk4) enzyme assay, 32P incorporation into retinoblastoma; conditions: Table 1; 25 µM ATP, retinoblastoma substrate
cdk4/D, sequence (P11802 whole entry): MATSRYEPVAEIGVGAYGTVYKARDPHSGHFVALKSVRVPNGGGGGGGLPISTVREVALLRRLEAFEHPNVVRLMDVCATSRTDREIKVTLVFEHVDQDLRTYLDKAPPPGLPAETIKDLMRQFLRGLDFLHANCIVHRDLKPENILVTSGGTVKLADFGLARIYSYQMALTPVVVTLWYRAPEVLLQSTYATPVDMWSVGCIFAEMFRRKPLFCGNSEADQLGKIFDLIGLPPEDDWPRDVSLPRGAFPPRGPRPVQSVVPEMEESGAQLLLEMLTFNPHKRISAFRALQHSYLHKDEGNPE
cdk4/D, sequence (P24385 whole entry, further chain): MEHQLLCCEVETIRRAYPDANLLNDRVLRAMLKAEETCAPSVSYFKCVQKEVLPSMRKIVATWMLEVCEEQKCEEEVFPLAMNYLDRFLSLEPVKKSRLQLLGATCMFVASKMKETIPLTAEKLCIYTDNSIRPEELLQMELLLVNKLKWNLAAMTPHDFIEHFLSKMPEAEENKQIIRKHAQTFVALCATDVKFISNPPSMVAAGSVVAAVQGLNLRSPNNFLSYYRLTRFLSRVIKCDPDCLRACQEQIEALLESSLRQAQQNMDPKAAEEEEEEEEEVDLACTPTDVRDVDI
Experimental: A typical assay, for instance, measures inhibitory activity against the cyclin D dependent kinase 4 enzyme (cdk4/D). […] The cdk 4 assay was carried out as follows.
(§2) All components except the ATP were added to the wells, and the plate was placed on a plate mixer for 2 minutes. […] The reaction was terminated by addition of 0.1 mL of 20% trichloroacetic acid (TCA). The plate was kept at 4°C for at least 1 hour to allow the substrate to precipitate. The wells were then washed five times with 0.2 mL of 10% TCA and ^32P incorporation was determined with a beta plate counter (Wallac Inc., Gaithersburg, MD).

cdc2/cyclinB = cdc2/cyclinB (Homo sapiens, UniProt P06493); assay: Cyclin-dependent kinase assay (cdc2/cyclinB); conditions: Table 1; read-out: cdk1/B IC50
cdc2/cyclinB, sequence (P06493 whole entry): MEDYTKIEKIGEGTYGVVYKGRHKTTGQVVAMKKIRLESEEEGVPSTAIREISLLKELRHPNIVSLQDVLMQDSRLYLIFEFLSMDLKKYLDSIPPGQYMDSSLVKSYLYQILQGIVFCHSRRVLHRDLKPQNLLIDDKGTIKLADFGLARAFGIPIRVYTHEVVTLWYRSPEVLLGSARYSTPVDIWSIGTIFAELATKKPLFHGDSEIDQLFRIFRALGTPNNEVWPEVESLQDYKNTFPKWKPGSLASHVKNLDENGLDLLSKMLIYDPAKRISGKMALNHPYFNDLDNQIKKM
cdc2/cyclinB, sequence (P14635 whole entry, further chain): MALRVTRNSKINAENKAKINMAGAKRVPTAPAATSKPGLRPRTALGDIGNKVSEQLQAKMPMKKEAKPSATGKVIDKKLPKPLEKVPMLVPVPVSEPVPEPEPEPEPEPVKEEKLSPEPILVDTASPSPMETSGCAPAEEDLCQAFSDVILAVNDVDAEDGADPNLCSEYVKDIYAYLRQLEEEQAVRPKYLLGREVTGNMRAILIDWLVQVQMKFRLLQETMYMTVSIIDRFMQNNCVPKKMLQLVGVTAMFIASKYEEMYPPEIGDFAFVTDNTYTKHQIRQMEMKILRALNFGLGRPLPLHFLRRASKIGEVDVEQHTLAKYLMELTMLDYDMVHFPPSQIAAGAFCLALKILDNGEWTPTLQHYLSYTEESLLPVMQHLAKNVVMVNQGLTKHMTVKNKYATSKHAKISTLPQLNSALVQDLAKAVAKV
Experimental: as §2, with “TCA.” for “trichloroacetic acid (TCA).”, “incorporation” for “incorporation was”

cdk2/cyclinA = cdk2/cyclinA (Homo sapiens, UniProt P24941); assay: Cyclin-dependent kinase assay (cdk2/cyclinA); conditions: Table 1
Experimental: as §2, with “TCA.” for “trichloroacetic acid (TCA).”, “incorporation” for “incorporation was”

cdk2/cyclinE = cdk2/cyclinE (Homo sapiens, UniProt P24941); assay: Cyclin-dependent kinase assay (cdk2/cyclinE); conditions: Table 1; read-out: cdk2/E IC50
Experimental: as §2, with “TCA.” for “trichloroacetic acid (TCA).”, “incorporation” for “incorporation was”

Row | IC50 [1] [nM] | IC50 [2] [nM] | IC50 (cdk4/D) [nM] | IC50 (cdc2/cyclinB) [nM] | IC50 (cdk2/cyclinA) [nM] | IC50 (cdk2/cyclinE) [nM] | SMILES
1 | 99 | 99 |  |  |  |  | CCN(CC)CCOc1ccc(Nc2ncc3ccc(=O)n(C4CCCCC4)c3n2)cc1C [Example 150, 8-Cyclohexyl-2-[4-(2-diethylamino-ethoxy)-3-methyl-phenylamino]-8H-pyrido[2,3-d]pyrimidin-7-one]
2 | 3690 | 4060 | 400 |  |  |  | CC(C)Cn1c(=O)ccc2cnc(Nc3ccccc3)nc21 [Example 42, 8-Isobutyl-2-phenylamino-8H-pyrido[2,3-d]pyrimidin-7-one]
3 | 16100 | 12400 | 47 | 749 | 79 | 125 | O=c1ccc2cnc(Nc3ccccc3)nc2n1C1CCCCC1 [Example 131, 8-Cyclohexyl-2-phenylamino-8H-pyrido[2,3-d]pyrimidin-7-one]
4 | 1060 | 1450 |  |  |  |  | O=c1ccc2cnc(Nc3ccc(N4CCC(CCO)CC4)cc3)nc2n1C1CCCC1 [Example 196, 8-Cyclopentyl-2-{4-[4-(2-hydroxy-ethyl)-piperidin-1-yl]-phenylamino}-8H-pyrido[2,3-d]pyrimidin-7-one]
5 | 1780 | 3300 | 752 | 1020 | 129 | 410 | CCn1c(=O)ccc2cnc(Nc3ccccc3)nc21 [Example 18, 8-Ethyl-2-phenylamino-8H-pyrido[2,3-d]pyrimidin-7-one]
6 | 4960 | 6600 | 550 | 299 | 50 | 112 | CCCn1c(=O)ccc2cnc(Nc3ccccc3)nc21 [Example 41, 2-Phenylamino-8-propyl-8H-pyrido[2,3-d]pyrimidin-7-one]
7 | 4180 | 2980 | 210 | 190 | 12 | 110 | O=c1ccc2cnc(Nc3ccccc3)nc2n1C1CCCC1 [Example 108, 8-Cyclopentyl-2-phenylamino-8H-pyrido[2,3-d]pyrimidin-7-one]
8 | 27800 | 12000 | 38 | 503 | 75 | 173 | O=c1ccc2cnc(Nc3ccccc3)nc2n1C1CC2CCC1C2 (centres unmarked) [Example 180, 8-Bicyclo[2.2.1]hept-2-yl-2-phenylamino-8H-pyrido[2,3-d]pyrimidin-7-one]
9 | 33100 | 20600 |  |  |  |  | CC1CC(C)CN(c2ccc(Nc3ncc4ccc(=O)n(C5CCCCC5)c4n3)cc2)C1 (centres unmarked) [Example 167, 8-Cyclohexyl-2-[4-(3,5-dimethyl-piperidin-1-yl)-phenylamino]-8H-pyrido[2,3-d]pyrimidin-7-one]
10 | 17100 | 19700 |  |  |  |  | O=c1ccc2cnc(Nc3ccc(-n4cccn4)cc3)nc2n1C1CCCCC1 [Example 162, 8-Cyclohexyl-2-(4-pyrazol-1-yl-phenylamino)-8H-pyrido[2,3-d]pyrimidin-7-one]
